Source: article PMC8954547, “Nonpeptidic Z360-Analogs Tagged with Trivalent Radiometals as Anti-CCK2R Cancer Theranostic Agents: A Preclinical Study” (Pharmaceutics, 2022)

What was measured:
HEK293-CCK2i4svR cells = assay: Radioligand uptake and internalization in HEK293-CCK2i4svR cells; format: cell-based, human
Protocol: A day before the experiment, HEK293-CCK2i4svR cells were seeded in six-well plates. The next day, cells were rinsed with ice-cold internalization medium (IM: DMEM Glutamax-I, supplemented by 1% (v/v) FBS) and then the fresh medium was added (1.2 mL) at 37 °C. A further portion of IM (150 µL) was added in the upper well-row, and DG2 solution in IM (150 µL) was added in the lower row (to a final concentration of 1 μM; non-specific series). Each of the test radioligands, [^67Ga]Ga/[^111In]In/[^177Lu]Lu-GAS1/3 and [^67Ga]Ga/[^111In]In-GAS2, was finally added (250 fmol total conjugates in 150 μL 0.5% BSA-PBS) in all the wells and the plates were incubated at for 1 h at 37 °C in an Incubator-Orbital Shaker unit (MPM Instr. SrI, Bernareggio, MI, Italy); [^111In]In-GAS1/2/3 were incubated for 15 min, 30 min, 1 h and 2 h. At the predetermined time points, the plates were placed on ice, the medium was collected, and the plates were rinsed with 0.5% BSA-PBS (1 mL). Cells were subsequently treated with an acid-wash solution (2 × 600 µL; 50 mM glycine buffer pH 2.8, 0.1 M NaCl) and the fractions collected (membrane-bound). After briefly washing with 0.5% BSA-PBS (1 mL), the cells were lysed with 1 N NaOH (2 × 600 µL), and the fractions were collected (internalized). The radioactivity content of collected fractions was counted in the gamma counter, and the percentage of internalized and membrane-bound fractions per time point were calculated with Microsoft Excel. Specific internalized and membrane-bound counts were determined by subtracting the respective non-specific (in the presence of 1 μM DG2) from the respective total counts. Results represent specific internalized/membrane bound ± SD of total added radioactivity per well from three experiments performed in triplicate.

[1] = Radioligand stability in mice (radio-HPLC of blood and urine); format: in vivo; conditions: mean ± SD
Protocol: The formation of radiometabolites which can be detected in the blood was tested in blood samples collected 5 min post-injection (pi) of each of the radioligands [^67Ga]Ga/[^111In]In/[^177Lu]Lu-GAS1/3 and [^67Ga]Ga/[^111In]In-GAS2. For this study, in-house male Swiss albino mice (body weight: 30 ± 5 g, provided by the NCSR “Demokritos” Animal House) were used in groups of three. The animals received, through the tail vein, a 100-μL bolus containing each radioligand tested (2.5–3 nmol of the total conjugate in vehicle: saline/EtOH 9/1 v/v, corresponding to: up to 11 MBq for In-111, up to 13 MBq for Ga-67 and up to 74 MBq for Lu-177). Mice were euthanized, and blood was collected directly from the heart using a prechilled penicillin syringe and transferred in a prechilled EDTA-containing Eppendorf Protein LoBind® tube on ice (40 µL, 50 mM Na2EDTA solution). After centrifugation (10 min, 2000× g/4 °C, in a Hettich, Universal 320R, centrifuge), the blood plasma was collected, mixed with chilled MeCN in a 1/1 v/v ratio and centrifuged again (10 min, 15,000× g/4 °C). Supernatants were collected and concentrated to a small volume (≈50–100 μL) under a gentle N2-flux at 40 °C. They were then diluted with physiological saline (≈400 μL) and filtered through a Millex GV filter (0.22 μm, 13 mm Ø, Millipore, Milford, CT, USA). Aliquots of the filtrate were analyzed by radio-RP-HPLC using a Waters Symmetry Shield RP18 cartridge column (5 μm, 3.9 mm × 20 mm) eluted at a flow rate of 1.0 mL/min with the following gradient: 100% A/0% B to 55% A/45% B in 45 min; A = 0.1% aqueous TFA (v/v) and B = MeCN (system 2). The elution time (tR) of each parent radioligand was determined by coinjection of blood samples with an aliquot of the labeling solution on the HPLC column. Results were calculated as the average percentage of intact radioligand ± SD derived from three independent experiments.
Following the same injection protocol, radioligands were administered in additional groups of mice, but this time animals were euthanized 30 min pi. The urine was immediately collected from the bladder using a prechilled syringe and transferred as before in a prechilled EDTA-containing Eppendorf Protein LoBind® centrifuge tube on ice (40 µL, 50 mM Na2EDTA solution) and 0.1 mL of physiological saline. Urine proteins were precipitated by adding chilled MeCN in a 1/1 v/v ratio followed by a 10 min centrifugation step (15,000× g/4 °C). The supernatant was then collected and treated following the blood sample workup procedure. Aliquots of the Millex-GV filtrate (containing >90% of total urine activity) were analyzed by radio-HPLC, adopting the aforementioned conditions. Results were calculated as the average percentage of intact radioligand ± SD derived from three independent experiments.

[2] = system: SCID mice bearing twin HEK293-CCK2i4svR and wtHEK293 tumors; assay: Biodistribution in SCID mice bearing twin HEK293-CCK2i4svR and wtHEK293 xenografts; format: in vivo
Protocol: Inocula containing a suspension of freshly harvested HEK293-CCK2i4svR/wtHEK293 cells (150 μL, 1.8 × 10^7/1.4 × 10^7 cells, respectively, in normal saline) were subcutaneously (sc) injected in the right and left flanks of male SCID mice (24.5 ± 2.3 g body weight, six weeks of age on arrival day, NCSR “Demokritos” Animal House Facility). Well-palpable tumors (0.42 ± 0.37/0.25 ± […], respectively) were grown at the inoculation site 3–4 weeks later, and biodistribution was conducted. On the day of biodistribution, animals were divided into groups of four and received the radioligand through the tail vein as a bolus (100 μL, containing each of: i. 78–91 kBq [^67Ga]GAS1/2/3 corresponding to 7–17 pmol GAS1/2/3; ii. 74–92 kBq [^111In]GAS1/2/3 corresponding to 20–25 pmol GAS1/2/3; iii. 730 kBq [^177Lu]Lu-GAS1/3 corresponding to 40 pmol GAS1/3, in-vehicle: saline/EtOH 9/1 v/v). Animals were euthanized at predetermined time intervals depending upon the radionuclide applied (for [^67Ga]Ga-GAS1/2/3: 1, 4 and 24 h pi; for [^111In]In-GAS1/2/3: 4 and 24 h pi–two extra groups of mice receiving gelofusine together with [^111In]In-GAS1/2 at 4 and 24 h pi were included; and for [^177Lu]Lu-GAS1/3: 4, 24, 48, 72 and 96 h pi). Mice were dissected, and blood samples, organs of interest and tumors were rapidly collected, weighted and counted in the gamma counter. Biodistribution data was calculated as the percentage of the administered dose per gram tissue (%IA/g) with the aid of suitable standards of the administered dose and the Microsoft Excel program. Results are presented as mean % IA/g values ± SD, n = 4 per time point, as determined by the PRISM^TM 6.0 GraphPad software (San Diego, CA, USA).

Compound: CC(C)(C)C(=O)CN1C(=O)[C@H](NC(=O)Nc2cccc(C(=O)NCCOCCOCCOCCNC(=O)[C@H](CCC(=O)O)NC(=O)CN3CCN(CC(=O)[O-])CCN(CC(=O)[O-])CCN(CC(=O)[O-])CC3)c2)CN(C2CCCCC2)c2ccccc21.[67Ga+3] (stereo in doubt) [[^67Ga]Ga-GAS1]
- Internalized to membrane-bound ratio (HEK293-CCK2i4svR cells): 0.7
- Internalized fraction (HEK293-CCK2i4svR cells; 1 h 37 °C, specific): 1.79 ± 0.45 % of total added activity
- Cell uptake (internalized + membrane-bound) (HEK293-CCK2i4svR cells; 1 h 37 °C, specific, of total added activity): 4.26 ± 0.99%
- Intact radioligand in blood ([1]; mice blood collected 5 min pi): 93.9 ± 0.6 (3) %
- Intact radioligand in urine ([1]; mice urine collected 30 min pi): 80.2 ± 1.0 (3) %
- Biodistribution, Blood ([2]; 1 h pi): 6.53 ± 1.33 %IA/g
- Biodistribution, CCK2i4svR(+) Tumor ([2]; 1 h pi): 12.62 ± 1.76 %IA/g
- Biodistribution, CCK2i4svR(-) Tumor ([2]; 1 h pi): 1.62 ± 0.12 %IA/g
- Biodistribution, Femur ([2]; 1 h pi): 0.97 ± 0.12 %IA/g
- Biodistribution, Heart ([2]; 1 h pi): 2.11 ± 0.86 %IA/g
- Biodistribution, Intestines ([2]; 1 h pi): 2.33 ± 0.44 %IA/g
- Biodistribution, Kidneys ([2]; 1 h pi): 5.78 ± 0.48 %IA/g
- Biodistribution, Liver ([2]; 1 h pi): 3.39 ± 0.35 %IA/g
- Biodistribution, Lungs ([2]; 1 h pi): 3.63 ± 0.69 %IA/g
- Biodistribution, Muscle ([2]; 1 h pi): 0.61 ± 0.07 %IA/g
- Biodistribution, Pancreas ([2]; 1 h pi): 2.26 ± 0.18 %IA/g
- Biodistribution, Spleen ([2]; 1 h pi): 1.63 ± 0.16 %IA/g
- Biodistribution, Stomach ([2]; 1 h pi): 1.09 ± 0.22 %IA/g
- Biodistribution, Blood ([2]; 4 h pi): 1.25 ± 0.27 %IA/g
- Biodistribution, CCK2i4svR(-) Tumor ([2]; 4 h pi): 0.75 ± 0.19 %IA/g
- Biodistribution, Femur ([2]; 4 h pi): 0.29 ± 0.16 %IA/g
- Biodistribution, Heart ([2]; 4 h pi): 0.47 ± 0.09 %IA/g
- Biodistribution, Intestines ([2]; 4 h pi): 2.84 ± 0.38 %IA/g
- Biodistribution, Kidneys ([2]; 4 h pi): 3.59 ± 0.60 %IA/g
- Biodistribution, Liver ([2]; 4 h pi): 2.49 ± 0.31 %IA/g
- Biodistribution, Lungs ([2]; 4 h pi): 1.19±0.21 %IA/g
- Biodistribution, Muscle ([2]; 4 h pi): 0.19±0.07 %IA/g
- Biodistribution, Pancreas ([2]; 4 h pi): 0.51 ± 0.09 %IA/g
- Biodistribution, Spleen ([2]; 4 h pi): 0.78±0.02 %IA/g
- Biodistribution, Stomach ([2]; 4 h pi): 0.37 ± 0.08 %IA/g
- Biodistribution, Blood ([2]; 24 h pi): 0.08 ± 0.01 %IA/g
- Biodistribution, CCK2i4svR(+) Tumor ([2]; 24 h pi): 2.47 ± 0.41 %IA/g
- Biodistribution, CCK2i4svR(-) Tumor ([2]; 24 h pi): 0.00 ± 0.00 %IA/g
- Biodistribution, Femur ([2]; 24 h pi): 0.18 ± 0.04 %IA/g
- Biodistribution, Heart ([2]; 24 h pi): 0.13 ± 0.01 %IA/g
- Biodistribution, Intestines ([2]; 24 h pi): 0.32 ± 0.13 %IA/g
- Biodistribution, Kidneys ([2]; 24 h pi): 0.88 ± 0.17 %IA/g
- Biodistribution, Liver ([2]; 24 h pi): 0.75 ± 0.08 %IA/g
- Biodistribution, Lungs ([2]; 24 h pi): 0.31 ± 0.16 %IA/g
- Biodistribution, Muscle ([2]; 24 h pi): 0.05 ± 0.02 %IA/g
- Biodistribution, Pancreas ([2]; 24 h pi): 0.22 ± 0.01 %IA/g
- Biodistribution, Spleen ([2]; 24 h pi): 0.51 ± 0.12 %IA/g
- Biodistribution, Stomach ([2]; 24 h pi): 0.18 ± 0.02 %IA/g
